Reference: patent US9949947B2, “Delphinidin for combating melanoma cells” (Sapiotec GmbH, priority 2012, dated 2018)

Experiments:
[1] = Stability in aqueous 0.9% NaCl solution at 37° C., delphinidin content by HPLC (Example 5); assay type: physicochemical; details: starting concentration 1.584 mg/ml (complex) or 0.0216 mg/ml (delphinidin)
Procedure: To determine the delphinidin chloride content in the delphinidin-containing solutions, a reversed-phase HPLC method was used similar to the one already described above. The following reagents were used in this case: […] The solutions were prepared at room temperature and subsequently stored in the dark at 37° C. in closed vials. […] The table below gives the content determined as a percentage of the starting concentration stated above. The determination of the delphinidin content in the samples was calculated with the aid of the Agilent ChemStation software using the calibration with the external standard described.

[2] = test system: human melanoma cell line A-375; test: Induction of apoptosis, sub-G1 peak method (Example 6); assay type: cell-based; details: A-375, 24 hours; 10-3000 μg/ml delphinidin-SBE-β-CD or 15-120 μM delphinidin Cl; low and higher cell confluence (FIGS. 1, 2a, 2b)
[3] = test system: human melanoma cell line A-375; test: Cell viability test, WST-1 assay (Example 7); assay type: cell-based; details: A-375, 24 hours; 10-3000 μg/ml delphinidin-SBE-β-CD or 15-120 μM delphinidin Cl; low and higher cell confluence (FIGS. 3a, 3b)
[4] = test system: human dermal microvascular endothelial cells; test: Cytotoxicity, cell vitality by ATP luminescence assay, endothelial cells (Example 12); assay type: cell-based; details: 0.1-100 μM (0.1 μM; 3.2 μM; 100 μM), Day 1-Day 4, FIG. 18
Excerpt: The human dermal microvascular endothelial cells were obtained by the standard method known to those skilled in the art of Hewett and Murray (1993) [Hewett P. W. and Murray J. C. (1993) Immunomagnetic purification of human microvessel endothelial cells using Dynabeads coated monoclonal antibodies to PECAM-1. Eur J Cell Biol 62: 451-454; Hewett P. W. & Murray J. C. (1993) Human microvessel endothelial cells: Isolation, culture and characterization. In Vitro Cell Biol: 823-830].

A-375 cells [5] = test: Microscopic analysis of cell morphology after 24 hours of treatment; details: A-375, after 24 hours of treatment, high concentrations (FIG. 4)
human fibroblasts = test: Cytotoxicity, cell vitality by ATP luminescence assay, fibroblasts (Example 12); details: 0.1-100 μM (0.1 μM; 3.2 μM; 100 μM), FIG. 19
Procedure: The cells used were primary, even isolated fibroblasts and microvascular endothelial cells from human donor skin.
To isolate the fibroblasts, the tissue cell structure was dissolved by means of a one-hour incubation with trypsin-EDTA solution. To stop the cell detachment reaction, stop medium was added to the skin. The piece of skin was then swirled twice in PBS resulting in a suspension of fibroblasts. The fibroblasts obtained were centrifuged at 4° C. for 5 min at 100 revolutions per minute and were used after quantification.
In the experiments according to Example 12, the effect of the substances investigated on the vitality of human fibroblasts and endothelial cells was investigated using the ATP luminescence assay, which is known to those skilled in the art and is briefly summarized below for the sake of completeness.
By the inhibition of endogenous ATPases, the ATP content liberated by lysis can thus be used as a measure for the number of vital cells. For the quantification, the liberated ATP is coupled to a reaction catalyzed by the enzyme luciferase, in which the ATP-dependent oxidation of the substrate luciferin to oxyluciferin, carbon dioxide, AMP and inorganic phosphate takes place in the presence of Mg^2+, with release of light. […] This is measured in RLU (relative light units), an independent unit which reflects the amount of ATP in the sample. […]

[6] = Solubility of delphinidin chloride in aqueous cyclodextrin solutions (Example 1); details: pure water, cyclodextrin concentration 0; excess delphinidin chloride, stirred at 30° C. for 20 h in the dark, filtered 0.22 μm
cell line A-375 = test: Induction of apoptosis in combination with TRAIL, sub-G1 peak method (Example 9); assay type: cell-based, human; details: A-375, 24 hours; complex partner as control
Procedure: The same cell line and method was used in the experiments as in the preceding section II. […] The experiments were carried out in parallel both at low (low cell confluence) and higher cell density (higher cell confluence), of which the results processed graphically are shown in FIGS. 11a (low cell confluence) and 11b (higher cell confluence).

A-375 cells [7] = test: Cell viability test in combination with TRAIL (Example 10); assay type: cell-based, human; details: A-375, 24 hours; complex partner as control
A-375 cells [8] = test: Real-time cell analysis (RTCA) in combination with TRAIL, xCELLigence system (Example 11); assay type: cell-based, human; details: A-375, high cell confluence; TRAIL 0.02 μg/ml, SBE-β-CD 30 or 1000 μg/ml (FIGS. 16 and 17)

| Compound | Delphinidin content as a percentage of the starting concentration ([1]; 0 h) | Delphinidin content as a percentage of the starting concentration ([1]; 1 h, 37° C. in the dark) | Delphinidin content as a percentage of the starting concentration ([1]; 2 h, 37° C. in the dark) | Delphinidin content as a percentage of the starting concentration ([1]; 3 h, 37° C. in the dark) | Delphinidin content as a percentage of the starting concentration ([1]; 4 h, 37° C. in the dark) | Induction of apoptosis (sub-G1 peak) [2] | Effect on cell viability (loss of vital cells) [3] | Cytotoxic effects on cell vitality [4] | Morphology of the cells under microscopic analysis (A-375 cells [5]) | Cytotoxic effects on cell vitality (human fibroblasts) | Delphinidin chloride, solubility achievable [6] | Induction of apoptosis (sub-G1 peak) (cell line A-375) | Cell vitality (A-375 cells [7]) | Intensification of TRAIL sensitivity (A-375 cells [8]) |
| --- | --- | --- | --- | --- | --- | --- | --- | --- | --- | --- | --- | --- | --- | --- |
| Oc1cc(O)c2cc(O)c(-c3cc(O)c(O)c(O)c3)[o+]c2c1.[Cl-] [delphinidin Cl, delphinidin chloride] | 100% | 8.3% | 6.5% | 5.6% | 5.1% | significant dose-dependent induction of apoptosis | loss of vital cells with increasing dose | no significant cytotoxic effects | globular and/or detached | no significant cytotoxic effects | 70 µg/mL |  |  |  |
| sulfobutyl ether β-cyclodextrin [SBE-β-CD] |  |  |  |  |  | no effect | no effect |  |  |  |  | at control level | at control level | No intensification of TRAIL sensitivity |
